Assay results reported in US8617827B2, “Photoactivable fluorescent dyes for optical microscopy and imaging techniques” (Max-Planck-Gesellschaft zur Foerderung der Wissenschaften …, priority 2009, dated 2013).

Columns and labels:
[1] = UV absorption and fluorescence spectra in solution; type: physicochemical; settings: for absorption maximum (abs.) / emission maximum (em.): in MeOH, approximate, comparison
[2] = Preparative photolysis in methanol, light >320 nm; type: physicochemical; settings: MeOH, under N2, ambient temperature
Experimental: Diazoketone 10 was subjected to photolysis in methanol in order to study the product distribution. Light with wavelengths >320 nm was used. The result of this experiment is presented in Scheme 6.
NMR spectra were recorded with Varian MERCURY 300 spectrometer at 300 (^1H) and 75.5 MHz (^13C and APT). All spectra are referenced to tetramethylsilane as an internal standard (δ=0 ppm) using the signals of the residual protons of CHCl3 (7.26 ppm) in CDCl3, CHD2OD (3.31 ppm) in CD3OD, HOD (4.79 ppm) in D2O or [D5] DMSO (2.50 ppm) in [D6] DMSO. Multiplicities of signals are described as follows: s=singlet, br. s=broad singlet, d=doublet, br. d=broad doublet, t=triplet, q=quartet, m=multiplet. Coupling constants (J) are given in Hz. Multiplicities in the ^13C NMR spectra were determined by APT (Attached Proton Test) measurements. […] Analytical TLC was performed on MERCK ready-to-use plates with silica gel 60 (F254). […]
Photolysis of diazoketone 10: A solution of compound 10 (70 mg, 0.15 mmol) in MeOH (150 mL) was placed into a reactor for photolysis, and nitrogen was bubbled for 30 min through the solution at room temperature with stirring. Then the lamp was turned on, and the reaction mixture was irradiated at ambient temperature with stirring under N2 for 40 min, until the starting compound could not be detected on TLC. […]

Molecule	absorption maximum (abs.) [1]	emission maximum (em.) [1]	UV λmax ([1]; MeCN) [nm]	ε at λmax ([1]; MeCN)	irradiation time until starting compound could not be detected [2] [min]
CCN(CC)c1ccc2c(-c3ccccc3C(=O)O)c3ccc(=[N+](CC)CC)cc-3oc2c1.[Cl-] [rhodamine B, Rhodamine B]	about 560 nm	ca. 580 nm	–	–	–
5/6-carboxy rhodamine Q	ca. 540 nm	about 560 nm	–	–	–
CN(C)c1ccc2c(-c3ccccc3C(=O)[O-])c3ccc(N(C)C)cc3[o+]c2c1 [TMR, N,N,N′,N′-Tetramethylrhodamine]	about 560 nm	ca. 580 nm	–	–	–
CCN(CC)c1ccc2c(c1)Oc1cc(N(CC)CC)ccc1C21C(=[N+]=[N-])C(=O)c2ccccc21 [Compound 10]	–	–	241	59700	40
